This is an account of results in article PMC7115377 (European Journal of Medicinal Chemistry, 2018).

Data set [1] relates to HeLa cells. The conditions noted are these: microscopy.
The subject of data set [2] is Respiratory syncytial virus (RSV; strain Long). The experiment in a line: microbe, parasite or virus in culture. The conditions noted are these: human respiratory syncytial virus, HeLa, read-out: EC50 RSV. The class given is cell-based.
For data set [3], the system named is influenza B/Ned/537/05. The experiment in a line: Influenza B antiviral assay in MDCK cells. The class given is cell-based. The conditions noted are these: Influenza B virus, read-out: EC50 Influenza B, microscopic method.
For data set [4], the system named is MDCK cells.
Data set [5] has as its system influenza B virus. The conditions noted are these: read-out: EC50 influenza B; previous series; ref [21]; cited from earlier work.
Data set [6] relates to influenza B/Ned/537/05. Description: Influenza B antiviral assay in MDCK cells. The class given is cell-based. Particulars: Influenza B virus, read-out: mean EC50 anti-influenza B activity.

Each structure is given as a SMILES string. Like-named read-outs stand apart in the source and are kept apart here. Bounds are passed on as bounds.

Regarding `COCCN1C(N)=NC(N)=NC12CCN(C(=O)NC1CCC(C)CC1)CC2` (centres unmarked) [Compound 18, 2,4-Diamino-9-[(4-methylcyclohexyl)carbamoyl]-1-(2-methoxyethyl)-1,3,5,9-tetraazaspiro-[5.5]undeca-2,4-diene], the “Cytotoxicity MCC” value in data set [1] was >100 µM. Regarding `COc1cccc(N2C(N)=NC(N)=NC23CCNCC3)c1` [Compound 7, 2,4-Diamino-1-(3-methoxyphenyl)-1,3,5,9-tetraazaspiro[5.5]undeca-2,4-diene], the “Cytotoxicity MCC” value in data set [1] is >100 µM. `NC1=NC2(CCN(C(=O)C3CCC3)CC2)N(c2cccc(Cl)c2)C(N)=N1` [Compound 3, 9-Cyclobutylcarbonyl-1-(3-chlorophenyl)-2,4-diamino-1,3,5,9-tetraazaspiro[5.5]undeca-2,4-diene]: in data set [1], the “Cytotoxicity MCC” value is >100 µM. On the same count and under the same terms, with `NC1=NC2(CCNCC2)N(c2cccc(Cl)c2)C(N)=N1` [Compound 1, 1-(3-Chlorophenyl)-2,4-diamino-1,3,5,9-tetraazaspiro[5.5]undeca-2,4-diene] the figure was >100 µM; with `CC(C)(C)OC(=O)N1CCC2(CC1)N=C(N)N=C(N)N2c1cccc(Cl)c1` [Compound 2, Tert-butyl 1-(3-Chlorophenyl)-2,4-diamino-1,3,5,9-tetraazaspiro[5.5]undeca-2,4-diene-9-carboxylate], >100 µM.

For the compound `NC(=O)c1ncn([C@@H]2O[C@H](CO)[C@@H](O)[C@H]2O)n1` [Ribavirin], the EC50 in data set [2] is 5800 nM. As for `CC(C)(C)OC(=O)N1CCC2(CC1)N=C(N)N=C(N)N2Cc1cccc(Cl)c1` [Compound 11, Tert-butyl 1-(3-Chlorobenzyl)-2,4-diamino-1,3,5,9-tetraazaspiro[5.5]undeca-2,4-diene-9-carboxylate], the “Cytotoxicity MCC” value in data set [1] was >100 µM. Take `COCCN1C(N)=NC(N)=NC12CCN(S(=O)(=O)c1ccccc1)CC2` [Compound 21, 2,4-Diamino-9-(phenylsulfonyl)-1-(2-methoxyethyl)-1,3,5,9-tetraazaspiro[5.5]undeca-2,4-diene]: the “Cytotoxicity MCC” value in data set [1] was >100 µM. Turning to `COc1cccc(N2C(N)=NC(N)=NC23CCN(C(=O)c2ccc(C(F)(F)F)cc2C)CC3)c1` [Compound 10, 2,4-Diamino-1-(3-methoxyphenyl)-9-[(2-methyl-4-(trifluoromethyl)phenyl)carbonyl]-1,3,5,9-tetraazaspiro[5.5]undeca-2,4-diene], the “Cytotoxicity MCC” value in data set [1] was >100 µM.

Turning to `NC1=NC2(CCN(C(=O)Nc3ccc(F)cc3)CC2)N(c2cccc(Cl)c2)C(N)=N1` [Compound 6, 1-(3-Chlorophenyl)-2,4-diamino-9-[N-(4-fluorophenyl)carbamoyl]-1,3,5,9-tetraazaspiro-[5.5]undeca −2,4-diene], in data set [3], the EC50 is 350 nM. The “CC50 fold higher than corresponding MCC” value in data set [4] was 319 fold. The “Cytotoxicity MCC” value in data set [1] is ≥100 µM.

With `CC(=O)N[C@H]1[C@H]([C@H](O)[C@H](O)CO)OC(C(=O)O)=C[C@@H]1NC(=N)N` [Zanamivir], in data set [5], the EC50 was 60 nM.

Turning to `Cc1ccc(C(=O)N2CCC3(CC2)N=C(N)N=C(N)N3c2cccc(Cl)c2)cc1` [Compound 4, 1-(3-Chlorophenyl)-2,4-diamino-9-(p-tolylcarbonyl)-1,3,5,9-tetraazaspiro[5.5]undeca-2,4-diene], in data set [6], the EC50 was ~200 nM. In data set [4], the “CC50 fold higher than corresponding MCC” value was 22 fold. Moreover, the “Cytotoxicity MCC” value in data set [1] was ≥100 µM. For the compound `CCCCC(=O)N1CCC2(CC1)N=C(N)N=C(N)N2c1cccc(OC)c1` [Compound 9, 2,4-Diamino-1-(3-methoxyphenyl)-9-(1-oxopent-1-yl)-1,3,5,9-tetraazaspiro[5.5]undeca-2,4-diene], the “Cytotoxicity MCC” value in data set [1] was >100 µM. In the case of `CCS(=O)(=O)N1CCC2(CC1)N=C(N)N=C(N)N2CCOC` [Compound 20, 2,4-Diamino-9-(ethylsulfonyl)-1-(2-methoxyethyl)-1,3,5,9-tetraazaspiro[5.5]undeca-2,4-diene], in data set [1], the “Cytotoxicity MCC” value is >100 µM.

In the case of `NC1=NC2(CCN(C(=O)c3ccc4ccccc4c3)CC2)N(c2cccc(Cl)c2)C(N)=N1` [Compound 5, 1-(3-Chlorophenyl)-2,4-diamino-9-[(naphthalen-2-yl)carbonyl]-1,3,5,9-tetraazaspiro-[5.5]undeca-2,4-diene], the “Cytotoxicity MCC” value in data set [1] was ≥100 µM. Same read-out and setting: for `COc1cccc(N2C(N)=NC(N)=NC23CCN(C(=O)OC(C)(C)C)CC3)c1` [Compound 8, Tert-butyl 2,4-diamino-1-(3-methoxyphenyl)-1,3,5,9-tetraazaspiro[5.5]undeca-2,4-diene-9-carboxylate] the value was >100 µM.
